According to patent US9545407B2, “Formulations of a bruton's tyrosine kinase inhibitor” (Pharmacyclics LLC, priority 2014, dated 2017):
pEC50: −log10 of the molar value. Where two headings read alike, the source gives them in different places.

Tested on: OCI-Ly10
Experiment: growth inhibition of OCI-Ly10 (ABC subtype DLBCL cells)
Format: cell-based
Conditions: Homo sapiens
From the text: See U.S. Pat. No. 7,711,492 and Staudt et al., Nature, Vol. 463, Jan. 7, 2010, pp. 88-92, the contents of which are incorporated by reference in their entirety.

- pEC50 (continuous exposure, read-out: EC50 continuous exposure): 8.00
- pEC50 (read-out: EC50 1 hour pulse, 1 hour pulse): 7.30
Compound: C=CC(=O)N1CCC[C@@H](n2nc(-c3ccc(Oc4ccccc4)cc3)c3c(N)ncnc32)C1 [Compound 1, 1-((R)-3-(4-amino-3-(4-phenoxyphenyl)-1H-pyrazolo[3,4-d]pyrimidin-1-yl)piperidin-1-yl)prop-2-en-1-one]
